In this experiment the test system is MV-4-11 cells. The experiment can be described thus: Gene expression microarray analysis (Affymetrix PrimeView) and GSEA. Format: cell-based, human. Also noted: RFU PODN (11730768_x_at) / Fold change /veh PODN (11730768_x_at) / RFU LINC00158 (11744669_a_at) / Fold change /veh LINC00158 (11744669_a_at) / RFU DUSP10 (11751237_a_at) / Fold change /veh DUSP10 (11751237_a_at) / RFU ID3 (11757404_x_at) / Fold change /veh ID3 (11757404_x_at) / RFU PLEKHG5 (11737974_s_at) / Fold change /veh PLEKHG5 (11737974_s_at) / RFU LRRC4B (11730491_at) / Fold change /veh LRRC4B (11730491_at) / RFU GIMAP4 (11747438_a_at) / Fold change /veh GIMAP4 (11747438_a_at) / RFU KRT8 (11758183_x_at) / Fold change /veh KRT8 (11758183_x_at) / RFU CNN1 (11734310_a_at) / Fold change /veh CNN1 (11734310_a_at) / RFU VPS37D (11726825_at) / Fold change /veh VPS37D (11726825_at) / RFU C10orf10 (11716522_x_at) / Fold change /veh C10orf10 (11716522_x_at) / RFU KIR2DL2 /// KIR2DL4 /// KIR2DL5A /// KIR2DL5B /// KIR2DS1 /// KIR2DS2 /// KIR2DS3 /// KIR2DS4 /// KIR3DL3 /// KIR3DL3 /// KIR3DS1 (11738374_at) / Fold change /veh KIR2DL2 /// KIR2DL4 /// KIR2DL5A /// KIR2DL5B /// KIR2DS1 /// KIR2DS2 /// KIR2DS3 /// KIR2DS4 /// KIR3DL3 /// KIR3DL3 /// KIR3DS1 (11738374_at) / RFU C1QL1 (11718748_at) / Fold change /veh C1QL1 (11718748_at) / RFU TMPRSS4 (11747572_a_at) / Fold change /veh TMPRSS4 (11747572_a_at) / RFU HAMP (11756126_x_at) / Fold change /veh HAMP (11756126_x_at) / RFU RNFT2 (11725882_a_at) / Fold change /veh RNFT2 (11725882_a_at) / RFU NR4A2 (11747474_a_at) / Fold change /veh NR4A2 (11747474_a_at) / RFU ABCC12 (11746883_a_at) / Fold change /veh ABCC12 (11746883_a_at) / RFU TMEM136 (11760407_x_at) / Fold change /veh TMEM136 (11760407_x_at) / RFU CLDN22 /// WWC2 (11732394_at) / Fold change /veh CLDN22 /// WWC2 (11732394_at) / RFU HLA-DPB1 (11760878_x_at) / Fold change /veh HLA-DPB1 (11760878_x_at) / RFU SPINT1 (11716480_a_at) / Fold change /veh SPINT1 (11716480_a_at) / RFU GAP43 (11754022_s_at) / Fold change /veh GAP43 (11754022_s_at) / RFU A4GNT (11735810_at) / Fold change /veh A4GNT (11735810_at) / RFU PRB3 (11715151_x_at) / Fold change /veh PRB3 (11715151_x_at) / RFU TUBB4B (11761932_at) / Fold change /veh TUBB4B (11761932_at) / RFU CAPN14 (11732068_a_at) / Fold change /veh CAPN14 (11732068_a_at) / RFU TMCC2 (11721928_a_at) / Fold change /veh TMCC2 (11721928_a_at) / RFU IRGQ (11745062_a_at) / Fold change /veh IRGQ (11745062_a_at) / RFU FAM174B (11720279_a_at) / Fold change /veh FAM174B (11720279_a_at) / RFU TMPRSS4 (11748680_a_at) / Fold change /veh TMPRSS4 (11748680_a_at) / RFU FAM212B (11763350_a_at) / Fold change /veh FAM212B (11763350_a_at) / RFU PLEKHG5 (11743358_a_at) / Fold change /veh PLEKHG5 (11743358_a_at) / RFU ZSCAN30 (11745921_a_at) / Fold change /veh ZSCAN30 (11745921_a_at) / RFU CMKLR1 (11741424_a_at) / Fold change /veh CMKLR1 (11741424_a_at) / RFU LOC101060620 /// MAPK8IP1 (11723275_at) / Fold change /veh LOC101060620 /// MAPK8IP1 (11723275_at) / RFU SPTSSB (11747773_x_at) / Fold change /veh SPTSSB (11747773_x_at) / RFU PRSS12 (11739890_at) / Fold change /veh PRSS12 (11739890_at) / RFU BIN1 (11741810_x_at) / Fold change /veh BIN1 (11741810_x_at) / RFU WNT11 (11732464_a_at) / Fold change /veh WNT11 (11732464_a_at) / RFU C10orf10 (11716521_a_at) / Fold change /veh C10orf10 (11716521_a_at) / RFU C5orf56 (11738089_at) / Fold change /veh C5orf56 (11738089_at) / RFU CYB561 (11721691_x_at) / Fold change /veh CYB561 (11721691_x_at) / RFU ANKRD19P (11752326_a_at) / Fold change /veh ANKRD19P (11752326_a_at) / RFU OR2T12 /// OR2T33 /// OR2T8 (11738714_s_at) / Fold change /veh OR2T12 /// OR2T33 /// OR2T8 (11738714_s_at) / RFU VCAN (11748164_a_at) / Fold change /veh VCAN (11748164_a_at) / RFU JSRP1 (11732532_at) / Fold change /veh JSRP1 (11732532_at) / RFU KRTAP10-11 (11738290_x_at) / Fold change /veh KRTAP10-11 (11738290_x_at) / RFU MYO3A (11730013_a_at) / Fold change /veh MYO3A (11730013_a_at) / RFU EBF3 (11725865_a_at) / Fold change /veh EBF3 (11725865_a_at) / RFU CAMK2N1 (11719241_x_at) / Fold change /veh CAMK2N1 (11719241_x_at) / RFU C5orf56 (11738088_a_at) / Fold change /veh C5orf56 (11738088_a_at) / RFU OLFML3 (11715873_a_at) / Fold change /veh OLFML3 (11715873_a_at) / RFU LOC100653217 /// NTM (11731650_a_at) / Fold change /veh LOC100653217 /// NTM (11731650_a_at) / RFU MAPK11 (11762145_a_at) / Fold change /veh MAPK11 (11762145_a_at) / RFU FIZ1 (11724087_x_at) / Fold change /veh FIZ1 (11724087_x_at) / RFU OASL (11726364_x_at) / Fold change /veh OASL (11726364_x_at) / RFU SOX15 (11748057_x_at) / Fold change /veh SOX15 (11748057_x_at) / RFU CD79A (11719716_a_at) / Fold change /veh CD79A (11719716_a_at) / RFU HIST1H1D (11736915_at) / Fold change /veh HIST1H1D (11736915_at) / RFU CASKIN2 (11723855_a_at) / Fold change /veh CASKIN2 (11723855_a_at) / RFU LOC730098 (11760151_x_at) / Fold change /veh LOC730098 (11760151_x_at) / RFU OR4N2 (11742367_at) / Fold change /veh OR4N2 (11742367_at) / RFU PRRT2 (11749266_a_at) / Fold change /veh PRRT2 (11749266_a_at) / RFU SNX32 (11753110_a_at) / Fold change /veh SNX32 (11753110_a_at) / RFU CDHR5 (11726645_a_at) / Fold change /veh CDHR5 (11726645_a_at) / RFU RCAN1 (11760418_a_at) / Fold change /veh RCAN1 (11760418_a_at) / RFU FAM167A (11723789_a_at) / Fold change /veh FAM167A (11723789_a_at) / RFU FAM26E (11764081_at) / Fold change /veh FAM26E (11764081_at) / RFU ISYNA1 (11749810_s_at) / Fold change /veh ISYNA1 (11749810_s_at) / RFU ACY1 (11761880_at) / Fold change /veh ACY1 (11761880_at) / RFU 11764098_at / Fold change /veh 11764098_at / RFU SAMD14 (11745864_x_at) / Fold change /veh SAMD14 (11745864_x_at) / RFU NPB (11741838_a_at) / Fold change /veh NPB (11741838_a_at) / RFU TMPRSS6 (11731388_a_at) / Fold change /veh TMPRSS6 (11731388_a_at) / RFU KRTAP10-2 (11738614_at) / Fold change /veh KRTAP10-2 (11738614_at) / RFU ARHGAP8 /// PRR5-ARHGAP8 (11727945_x_at) / Fold change /veh ARHGAP8 /// PRR5-ARHGAP8 (11727945_x_at) / RFU KRTAP5-7 /// NADSYN1 (11734609_at) / Fold change /veh KRTAP5-7 /// NADSYN1 (11734609_at) / RFU RASL12 (11751679_a_at) / Fold change /veh RASL12 (11751679_a_at) / RFU CDKN2B (11736163_a_at) / Fold change /veh CDKN2B (11736163_a_at) / RFU PRF1 (11729649_at) / Fold change /veh PRF1 (11729649_at) / RFU, ZNF638 /// ZNF638-IT1 / Fold change vs veh, ZNF638 /// ZNF638-IT1 / RFU, PANK3 / Fold change vs veh, PANK3 / RFU, SH3YL1 / Fold change vs veh, SH3YL1 / RFU, ZEB2 / Fold change vs veh, ZEB2 / RFU, NRIP1 / Fold change vs veh, NRIP1 / RFU, PTTG1IP / Fold change vs veh, PTTG1IP / RFU, CAPN2 / Fold change vs veh, CAPN2 / RFU, MED14 / Fold change vs veh, MED14 / RFU, SNORA58 / Fold change vs veh, SNORA58 / RFU, C1orf63 / Fold change vs veh, C1orf63 / RFU, LRRFIP1 / Fold change vs veh, LRRFIP1 / RFU, NDUFAF7 / Fold change vs veh, NDUFAF7 / RFU, SLC12A2 / Fold change vs veh, SLC12A2 / RFU, IBTK / Fold change vs veh, IBTK / RFU, ESF1 / Fold change vs veh, ESF1 / Fold change vs veh, TMEM50B / RFU, TAOK1 / Fold change vs veh, TAOK1 / RFU, ACBD3 / Fold change vs veh, ACBD3 / RFU, TMA16 / Fold change vs veh, TMA16 / RFU, RWDD3 / Fold change vs veh, RWDD3 / RFU, BCAT1 / Fold change vs veh, BCAT1 / RFU, EDEM3 / Fold change vs veh, EDEM3 / RFU, TMEM33 / Fold change vs veh, TMEM33 / RFU, WDR75 / Fold change vs veh, WDR75 / RFU, AHCTF1 / Fold change vs veh, AHCTF1 / RFU, TFRC / Fold change vs veh, TFRC / RFU, ZDHHC17 / Fold change vs veh, ZDHHC17 / RFU, NOM1 / Fold change vs veh, NOM1 / RFU, ARL8B / Fold change vs veh, ARL8B / RFU, ZBTB11 / Fold change vs veh, ZBTB11 / RFU, TAMM41 / Fold change vs veh, TAMM41 / RFU, KIAA1704 /// LOC100996395 / Fold change vs veh, KIAA1704 /// LOC100996395 / RFU, ING1 / Fold change vs veh, ING1 / RFU, TRMT61B / Fold change vs veh, TRMT61B / RFU, FUBP3 / Fold change vs veh, FUBP3 / RFU, TP53 / Fold change vs veh, TP53 / RFU, TNKS2 / Fold change vs veh, TNKS2 / RFU, ZFP14 / Fold change vs veh, ZFP14 / RFU, ACTR2 / Fold change vs veh, ACTR2 / RFU, PPP3R1 / Fold change vs veh, PPP3R1 / RFU, PIK3R1 / Fold change vs veh, PIK3R1 / RFU, HNRNPA1 / Fold change vs veh, HNRNPA1 / RFU, RNF170 / Fold change vs veh, RNF170 / RFU, ZNF28 / Fold change vs veh, ZNF28 / RFU, RNGTT / Fold change vs veh, RNGTT / RFU, OGT / Fold change vs veh, OGT / RFU, BRD1 / Fold change vs veh, BRD1 / RFU, MARS / Fold change vs veh, MARS / RFU, ZNF655 / Fold change vs veh, ZNF655 / RFU, FAHD1 / Fold change vs veh, FAHD1 / RFU, BDP1 / Fold change vs veh, BDP1 / RFU, LRRCC1 / Fold change vs veh, LRRCC1 / RFU, ARID1A / Fold change vs veh, ARID1A / RFU, ZNF146 / Fold change vs veh, ZNF146 / RFU, ZNF330 / Fold change vs veh, ZNF330 / RFU, GPN3 / Fold change vs veh, GPN3 / RFU, C9orf123 / Fold change vs veh, C9orf123 / RFU, N4BP2L2 / Fold change vs veh, N4BP2L2 / RFU, ARFIP1 / Fold change vs veh, ARFIP1 / RFU, FAM179B / Fold change vs veh, FAM179B / RFU, BCL10 / Fold change vs veh, BCL10 / RFU, UHRF1BP1L / Fold change vs veh, UHRF1BP1L / RFU, BET1 / Fold change vs veh, BET1 / RFU, CNOT2 / Fold change vs veh, CNOT2 / RFU, ZNF268 / Fold change vs veh, ZNF268 / Fold change vs veh, ZNF507 / RFU, DGCR2 / Fold change vs veh, DGCR2 / RFU, WDSUB1 / Fold change vs veh, WDSUB1 / Fold change vs veh, HSP90B1 /// MIR3652 / RFU, ADSS / Fold change vs veh, ADSS / RFU, GK / Fold change vs veh, GK / RFU, ZNF148 / Fold change vs veh, ZNF148 / RFU, TAF9 / Fold change vs veh, TAF9 / RFU, SLC1A5 / Fold change vs veh, SLC1A5 / RFU, SLMO2 / Fold change vs veh, SLMO2 / RFU, ABCC4 / Fold change vs veh, ABCC4 / RFU, LOC101060439 /// RAP1B / Fold change vs veh, LOC101060439 /// RAP1B / RFU, RFX7 / Fold change vs veh, RFX7 / RFU, GTPBP10 / Fold change vs veh, GTPBP10 / RFU, CNEP1R1 / Fold change vs veh, CNEP1R1 / RFU, BIVM-ERCC5 /// ERCC5 / Fold change vs veh, BIVM-ERCC5 /// ERCC5 / RFU, ILF3 / Fold change vs veh, ILF3 / RFU 11762660_at / Fold change /veh 11762660_at / RFU VCAN (11757783_s_at) / Fold change /veh VCAN (11757783_s_at) / RFU DDX43 (11728927_at) / Fold change /veh DDX43 (11728927_at) / RFU KRT8 (11758188_x_at) / Fold change /veh KRT8 (11758188_x_at) / RFU NKD1 (11759106_at) / Fold change /veh NKD1 (11759106_at) / RFU SRD5A1 (11742802_a_at) / Fold change /veh SRD5A1 (11742802_a_at) / RFU TPSAB1 /// TPSB2 (11721975_s_at) / Fold change /veh TPSAB1 /// TPSB2 (11721975_s_at) / RFU GSTM3 (11746129_a_at) / Fold change /veh GSTM3 (11746129_a_at) / RFU IL23R (11737362_x_at) / Fold change /veh IL23R (11737362_x_at) / RFU TMEM51 (11727254_a_at) / Fold change /veh TMEM51 (11727254_a_at) / RFU PIWIL2 (11732686_x_at) / Fold change /veh PIWIL2 (11732686_x_at) / RFU ORM1 (11744905_x_at) / Fold change /veh ORM1 (11744905_x_at) / RFU CCDC152 (11743942_at) / Fold change /veh CCDC152 (11743942_at) / RFU ECM1 (11717891_a_at) / Fold change /veh ECM1 (11717891_a_at) / RFU IL23R (11748794_a_at) / Fold change /veh IL23R (11748794_a_at) / RFU TNFAIP8L3 (11732012_x_at) / Fold change /veh TNFAIP8L3 (11732012_x_at) / RFU MBOAT4 (11741988_at) / Fold change /veh MBOAT4 (11741988_at) / RFU 11764193_at / Fold change /veh 11764193_at / RFU TMEM53 (11763286_at) / Fold change /veh TMEM53 (11763286_at) / RFU MAGEB2 (11727129_at) / Fold change /veh MAGEB2 (11727129_at) / RFU TMEM200A (11744735_a_at) / Fold change /veh TMEM200A (11744735_a_at) / RFU CCDC152 (11751479_a_at) / Fold change /veh CCDC152 (11751479_a_at) / RFU FAM211A (11726209_a_at) / Fold change /veh FAM211A (11726209_a_at) / RFU RGS16 (11746705_a_at) / Fold change /veh RGS16 (11746705_a_at) / RFU VCAN (11755009_s_at) / Fold change /veh VCAN (11755009_s_at) / RFU RHOB (11743442_s_at) / Fold change /veh RHOB (11743442_s_at) / RFU RGS16 (11720943_a_at) / Fold change /veh RGS16 (11720943_a_at) / RFU RGS16 (11720944_at) / Fold change /veh RGS16 (11720944_at) / RFU, VPS4B / Fold change vs veh, VPS4B / RFU, CREB1 / Fold change vs veh, CREB1 / RFU, DNAJC13 / Fold change vs veh, DNAJC13 / RFU, GNAQ / Fold change vs veh, GNAQ / RFU, CDK5R1 / Fold change vs veh, CDK5R1 / RFU, ZRANB3 / Fold change vs veh, ZRANB3 / RFU, CUL4A / Fold change vs veh, CUL4A / RFU, CCNY / Fold change vs veh, CCNY / RFU, UFL1 / Fold change vs veh, UFL1 / RFU, COG3 / Fold change vs veh, COG3 / RFU, DIAPH2 / Fold change vs veh, DIAPH2 / RFU, SKA2 / Fold change vs veh, SKA2 / RFU, AFF3 / Fold change vs veh, AFF3 / RFU, LMF1 / Fold change vs veh, LMF1 / RFU, IPO11 / Fold change vs veh, IPO11 / RFU, DFFB / Fold change vs veh, DFFB / RFU, FOXP1 / Fold change vs veh, FOXP1 / RFU, CARD8 / Fold change vs veh, CARD8 / RFU, STRN3 / Fold change vs veh, STRN3 / RFU, ADK / Fold change vs veh, ADK / RFU, RASSF2 / Fold change vs veh, RASSF2 / RFU, WIPF1 / Fold change vs veh, WIPF1 / RFU, LARP1B / Fold change vs veh, LARP1B / RFU, RASA1 / Fold change vs veh, RASA1 / RFU, RB1 / Fold change vs veh, RB1 / RFU, PPFIA1 / Fold change vs veh, PPFIA1 / RFU, MAT2A / Fold change vs veh, MAT2A / RFU, CCT5 / Fold change vs veh, CCT5 / RFU, WDR92 / Fold change vs veh, WDR92 / RFU, CUX1 / Fold change vs veh, CUX1 / RFU, TTC7A / Fold change vs veh, TTC7A / RFU, TMEM135 / Fold change vs veh, TMEM135 / RFU, DEPTOR / Fold change vs veh, DEPTOR / RFU, CPM / Fold change vs veh, CPM / RFU, DNAJB6 / Fold change vs veh, DNAJB6 / RFU, CACNA2D3 / Fold change vs veh, CACNA2D3 / RFU, DTX4 / Fold change vs veh, DTX4 / RFU, TFCP2 / Fold change vs veh, TFCP2 / RFU, GMCL1 /// GMCL1P1 / Fold change vs veh, GMCL1 /// GMCL1P1 / RFU, AEBP2 / Fold change vs veh, AEBP2 / RFU, SNHG1 /// SNORD22 /// SNORD25 /// SNORD26 /// SNORD27 /// SNORD28 /// SNORD29 /// SNORD31 / Fold change vs veh, SNHG1 /// SNORD22 /// SNORD25 /// SNORD26 /// SNORD27 /// SNORD28 /// SNORD29 /// SNORD31 / Fold change (Aza/veh), C12orf56 (ProbeSet 11735607_a_at) / Fold change (ACY-1035/veh), C12orf56 (ProbeSet 11735607_a_at) / Fold change (Aza/veh), FGFR1OP (ProbeSet 11751329_s_at) / Fold change (ACY-1035/veh), FGFR1OP (ProbeSet 11751329_s_at) / Fold change (Aza/veh), VPS36 (ProbeSet 11739960_a_at) / Fold change (ACY-1035/veh), VPS36 (ProbeSet 11739960_a_at) / RFU SYPL1 (11715823_x_at) / Fold change /veh SYPL1 (11715823_x_at) / RFU IGFBP7 (11715501_s_at) / Fold change /veh IGFBP7 (11715501_s_at) / RFU REEP3 (11722064_at) / Fold change /veh REEP3 (11722064_at) / RFU IGLL1 (11728026_x_at) / Fold change /veh IGLL1 (11728026_x_at): dose or concentration left out as unconfirmed. The conditions noted are these: MV-4-11 cells, 48 hours.

For the compound `Nc1ccc(-c2cccs2)cc1NC(=O)c1ccc2c(c1)cc(C1CC1)n2CCN1CCOCC1` [ACY-1035], the “Fold change /veh KIR2DL2 /// KIR2DL4 /// KIR2DL5A /// KIR2DL5B /// KIR2DS1 /// KIR2DS2 /// KIR2DS3 /// KIR2DS4 /// KIR3DL3 /// KIR3DL3 /// KIR3DS1 (11738374_at)” value amounted to 0.96.

These data come from article PMC5218480 (PLoS ONE, 2017).
